From PMC3556730 (Neuropharmacology, 2011)
pKi: −log10 of the molar value. Where two headings read alike, the source gives them in different places.

How the values were obtained:
5-HT2AR [1] = target: T1, 5-HT2AR (Homo sapiens, UniProt P28223); conditions: HEK-5HT2AR
5-HT2AR [2] = target: 5-HT2AR (Mus musculus, UniProt P35363); test: [3H]Ketanserin competition binding, mouse striatum membranes
5-HT2AR [3] = target: T1, 5-HT2AR
5-HT2AR [4] = target: T1, 5-HT2AR; conditions: for Emax (inositol phosphate production): HEK-5HT2AR-D2R, mean ± SEM; for Effect on 5-HT-induced 5-HT2AR-IP3 production / Effect on DOI-induced 5-HT2AR-IP3 production: co-expressing cells, D2R agonist 10^−5 M
5-HT2AR [5] = target: T1, 5-HT2AR; conditions: HEK-5HT2AR; vehicle; mean ± SEM
[6] = tested on: MK-801-induced locomotor activity; test: MK-801-induced locomotor activity in wild-type and 5-HT2AR-KO mice; format: in vivo; conditions: MK-801 0.5 mg/kg i.p.; wild-type and 5-HT2AR-KO mice (similar)
[7] = mouse striatum, with quinpirole (10^−5 M)

T1 sequence (P28223 whole entry): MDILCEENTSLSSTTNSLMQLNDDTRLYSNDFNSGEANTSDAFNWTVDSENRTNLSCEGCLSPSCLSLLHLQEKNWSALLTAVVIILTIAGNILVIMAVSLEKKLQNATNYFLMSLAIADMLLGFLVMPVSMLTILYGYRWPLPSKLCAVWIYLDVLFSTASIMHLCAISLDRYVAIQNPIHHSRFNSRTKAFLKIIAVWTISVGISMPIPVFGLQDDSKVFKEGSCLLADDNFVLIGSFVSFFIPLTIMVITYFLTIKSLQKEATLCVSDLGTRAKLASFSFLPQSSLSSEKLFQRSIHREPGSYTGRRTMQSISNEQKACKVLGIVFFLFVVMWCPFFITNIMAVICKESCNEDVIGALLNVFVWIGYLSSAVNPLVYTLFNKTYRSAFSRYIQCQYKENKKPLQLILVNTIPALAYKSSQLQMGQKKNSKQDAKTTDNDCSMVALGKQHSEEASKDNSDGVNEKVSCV
Sequence of 5-HT2AR (Mus musculus, UniProt P35363) (P35363 whole entry): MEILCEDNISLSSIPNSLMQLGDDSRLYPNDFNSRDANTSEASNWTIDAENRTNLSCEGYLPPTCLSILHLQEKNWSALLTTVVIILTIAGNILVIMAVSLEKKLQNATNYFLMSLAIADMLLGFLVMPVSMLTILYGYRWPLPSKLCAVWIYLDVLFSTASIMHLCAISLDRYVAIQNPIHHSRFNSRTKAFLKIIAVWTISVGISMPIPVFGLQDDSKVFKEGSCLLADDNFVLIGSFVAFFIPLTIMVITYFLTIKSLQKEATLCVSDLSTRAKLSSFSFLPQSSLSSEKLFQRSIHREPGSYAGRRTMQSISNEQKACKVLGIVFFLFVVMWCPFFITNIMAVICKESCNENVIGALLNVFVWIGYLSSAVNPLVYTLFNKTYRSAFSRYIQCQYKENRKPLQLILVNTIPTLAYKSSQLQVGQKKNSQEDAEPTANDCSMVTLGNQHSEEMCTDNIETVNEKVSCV

Compound: COc1cc(CC(C)N)c(OC)cc1I (racemic) [DOI, (+/−)-2,5-dimethoxy-4-iodoamphetamine]
- % High (percentage of high-affinity binding sites) (5-HT2AR [1]; vehicle): 41 ± 5%
- % High (percentage of high-affinity binding sites) (5-HT2AR [1]; with quinpirole (10^−5 M)): 48%
- pKi (5-HT2AR [2]; Fig. 1C single experiment, control, one-site model): 7.02
- pKi (5-HT2AR [2]; Fig. 1D single experiment, control, one-site model): 5.48
- % High (percentage of high-affinity binding sites) (5-HT2AR [2]; [7]): 44 ± 2%
- pKi (5-HT2AR [2]; read-out: Ki-high, mouse striatum, with quinpirole (10^−5 M), two-site model, mean ± SEM): 10.19
- pKi (5-HT2AR [2]; read-out: Ki-low, mouse striatum, vehicle, one-site model, mean ± SEM): 6.60
- pKi (5-HT2AR [2]; read-out: Ki-low, mouse striatum, with quinpirole (10^−5 M) + raclopride (10^−6 M), one-site model, mean ± SEM): 6.16
- pKi (5-HT2AR [2]; read-out: Ki-low, mouse striatum, with quinpirole (10^−5 M), two-site model, mean ± SEM): 6.29
- pKi (5-HT2AR [2]; read-out: Ki-low, mouse striatum, with raclopride (10^−6 M), one-site model, mean ± SEM): 6.18
- % High (percentage of high-affinity binding sites) (5-HT2AR [3]; HEK-5HT2AR-D2R, with quinpirole (10^−5 M)): 46 ± 3%

Compound: NCCc1c[nH]c2ccc(O)cc12 [5-HT, serotonin]
- Emax (inositol phosphate production) (5-HT2AR [4]; vehicle): 608 ± 12 cpm
- Emax (inositol phosphate production) (5-HT2AR [4]; with quinpirole (10^−5 M)): 589 ± 22 cpm
- Emax (inositol phosphate production) (5-HT2AR [4]; with ropinirole (10^−5 M)): 564 ± 47 cpm
- Emax (inositol phosphate production) (5-HT2AR [5]): 647 ± 74 cpm

Compound: C[C@]12N[C@H](Cc3ccccc31)c1ccccc12 [MK-801, dizocilpine]
- Locomotor activity [6]: increased locomotor activity

Compound: CCCN1CCC[C@@H]2Cc3n[nH]cc3C[C@H]21 [quinpirole]
- Effect on 5-HT-induced 5-HT2AR-IP3 production (5-HT2AR [4]): have no effect
- Effect on DOI-induced 5-HT2AR-IP3 production (5-HT2AR [4]): decrease
- Effect on affinity of DOI for 5-HT2AR (5-HT2AR [2]; mouse striatum, modulator 10^−5 M): significantly higher
- Effect on affinity of DOI for 5-HT2AR (5-HT2AR [3]; HEK293 co-expressing 5-HT2AR and D2R, modulator 10^−5 M): marked increase

Compound: CCN1CCC[C@H]1CNC(=O)c1c(O)c(Cl)cc(Cl)c1OC [raclopride]
- Effect on quinpirole-enhanced DOI affinity for 5-HT2AR (5-HT2AR [2]; [7]): prevents the enhanced effect

Compound: CCCN(CCC)CCc1cccc2c1CC(=O)N2 [ropinirole]
- Effect on 5-HT-induced 5-HT2AR-IP3 production (5-HT2AR [4]): have no effect
- Effect on DOI-induced 5-HT2AR-IP3 production (5-HT2AR [4]): decrease
